Like-named read-outs stand apart in the source and are kept apart here. Each block holds one compound with its values, some of them ahead of it.
What was measured:
[1] = Cladribine pharmacokinetics following oral administration; conditions: MS patients; after oral administration of single 10-mg tablet
[2] = Intracellular pharmacokinetics of Cd-AMP and Cd-ATP in patients with chronic myelogenous leukemia; conditions: human, in vivo
Method: After entering the target cells, Cladribine is phosphorylated to Cladribine monophosphate (Cd-AMP) by DCK (and also by deoxyguanosine kinase in the mitochondria). Cd-AMP is further phosphorylated to Cladribine diphosphate (Cd-ADP) and Cladribine triphosphate (Cd-ATP). The dephosphorylation and deactivation of Cd-AMP is catalyzed by cytoplasmic […].
Intracellular half-life of Cd-ATP was 10 h.

[3] = tested on: Tg rasH2 mice; assay: Short-term 26-week carcinogenicity study, oral; format: in vivo
[4] = Plasma protein binding; format: in vitro ADME; conditions: independent of plasma concentration
[5] = target: CYP2C8 (Homo sapiens, UniProt P10632)
Sequence of CYP2C8 (P10632 whole entry): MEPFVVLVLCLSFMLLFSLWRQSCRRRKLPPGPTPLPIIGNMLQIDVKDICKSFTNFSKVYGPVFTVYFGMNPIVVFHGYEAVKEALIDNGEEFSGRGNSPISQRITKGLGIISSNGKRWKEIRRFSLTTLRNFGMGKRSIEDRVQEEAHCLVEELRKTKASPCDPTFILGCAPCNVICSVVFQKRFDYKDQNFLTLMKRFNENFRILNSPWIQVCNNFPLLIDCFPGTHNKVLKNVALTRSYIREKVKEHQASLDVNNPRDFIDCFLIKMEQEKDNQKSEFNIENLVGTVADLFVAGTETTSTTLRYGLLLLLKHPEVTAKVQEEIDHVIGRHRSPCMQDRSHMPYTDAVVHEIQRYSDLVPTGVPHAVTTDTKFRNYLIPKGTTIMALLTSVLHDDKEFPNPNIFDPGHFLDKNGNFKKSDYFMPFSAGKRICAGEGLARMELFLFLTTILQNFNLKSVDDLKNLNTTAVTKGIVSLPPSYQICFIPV

[6] = Population pharmacokinetic analysis (pooled data from various studies)
[7] = tested on: monkey; assay: 1-year monkey study by the subcutaneous route (tumors); format: in vivo
[8] = tested on: patients with relapsing-remitting MS; assay: CLARITY study: oral Cladribine vs placebo over 96 weeks
[9] = in vivo; cited from earlier work
[10] = Metabolism in hepatic in vitro systems; format: in vitro ADME
Description: In hepatic in vitro systems, negligible metabolism of Cladribine was observed (at least 90% was unchanged Cladribine)

[11] = tested on: mammalian cells; assay: Gene mutation test; format: cell-based
[12] = tested on: human hepatocytes; assay: In vitro transporter-mediated uptake; format: in vitro ADME
[13] = tested on: patients with relapsing-remitting MS; conditions: cited from earlier work; for annualized rate of relapse / relapse-free rate: 96 weeks
[14] = tested on: mice; assay: In vivo clastogenicity (mouse micronucleus study)
Method: (§1) Cladribine is incorporated into DNA strands and inhibits DNA synthesis and repair. […] In vivo clastogenicity in mice was detected at 10 mg/kg, which was the lowest dose tested.

[15] = tested on: CYP3A4
[16] = tested on: mice; assay: Repeat-dose toxicology studies by parenteral routes; format: in vivo
[17] = target: CYP2C19 (Homo sapiens, UniProt P33261)
Sequence of CYP2C19 (P33261 whole entry): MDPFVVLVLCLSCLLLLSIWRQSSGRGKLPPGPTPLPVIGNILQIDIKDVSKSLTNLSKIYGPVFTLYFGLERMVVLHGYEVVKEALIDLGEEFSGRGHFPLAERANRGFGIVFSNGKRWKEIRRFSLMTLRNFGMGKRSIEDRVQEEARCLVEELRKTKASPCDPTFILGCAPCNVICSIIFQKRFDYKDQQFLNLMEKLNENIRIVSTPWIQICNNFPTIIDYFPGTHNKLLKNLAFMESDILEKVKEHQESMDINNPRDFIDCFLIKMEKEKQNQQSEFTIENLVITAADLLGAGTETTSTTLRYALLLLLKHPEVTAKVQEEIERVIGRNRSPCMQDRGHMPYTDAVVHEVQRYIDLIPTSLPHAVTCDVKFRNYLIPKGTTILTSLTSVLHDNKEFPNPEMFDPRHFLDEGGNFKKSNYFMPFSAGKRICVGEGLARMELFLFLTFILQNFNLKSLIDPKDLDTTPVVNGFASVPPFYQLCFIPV

[18] = tested on: patients with relapsing forms of clinically definite multiple sclerosis; assay: Example 3: oral Cladribine induction/maintenance regimen in relapsing forms of MS; format: in vivo, human; conditions: induction treatment and maintenance treatments
Description: The efficacy and safety of oral Cladribine administration, eventually multi-dose administration, as described herein, can alternatively also be assessed for example following the protocol for the treatment of relapsing forms of […] as given below.
A study of sixty patients with relapsing forms of clinically definite multiple sclerosis is undertaken. Each patient is first examined for normal hepatic, renal, and bone marrow functioning to establish baseline values
Patients are selected from Male or Female, between 18 and 55 years of age who had one or more relapses within the prior 12 months Female patients are non-pregnant female
Each of the patients in Groups 2 and 3 receives 3 mg or 10 mg 2-CdA (1, 2 or 3 administration(s) a day depending on the patient's weight) combined in cyclodextrin formulation a described in WO 2004/087101, Example 3. The Compositions of the Cladaribine formulations in 3 mg or 10 mg 2-CdA tablets containing […] are listed in Table 2, below. […]
Patients are monitored to determine whether there is any progression or improvement of brain lesions associated with progression of MS through MRI scans and neurological examination as described in Miller et at, 1996, above; Evans et al, 1997, above; Sipe et at, 1984, above; and Mattson, 2002, above. […]

[19] = tested on: CYP2B6
[20] = tested on: bacteria; assay: Gene mutation test; format: cell-based
Method: as §1

[21] = tested on: monkeys; assay: Repeat-dose toxicology studies by parenteral routes up to 1-year duration; format: in vivo
[22] = target: CYP2D6 (Homo sapiens, UniProt P10635)
Sequence of CYP2D6 (P10635 whole entry): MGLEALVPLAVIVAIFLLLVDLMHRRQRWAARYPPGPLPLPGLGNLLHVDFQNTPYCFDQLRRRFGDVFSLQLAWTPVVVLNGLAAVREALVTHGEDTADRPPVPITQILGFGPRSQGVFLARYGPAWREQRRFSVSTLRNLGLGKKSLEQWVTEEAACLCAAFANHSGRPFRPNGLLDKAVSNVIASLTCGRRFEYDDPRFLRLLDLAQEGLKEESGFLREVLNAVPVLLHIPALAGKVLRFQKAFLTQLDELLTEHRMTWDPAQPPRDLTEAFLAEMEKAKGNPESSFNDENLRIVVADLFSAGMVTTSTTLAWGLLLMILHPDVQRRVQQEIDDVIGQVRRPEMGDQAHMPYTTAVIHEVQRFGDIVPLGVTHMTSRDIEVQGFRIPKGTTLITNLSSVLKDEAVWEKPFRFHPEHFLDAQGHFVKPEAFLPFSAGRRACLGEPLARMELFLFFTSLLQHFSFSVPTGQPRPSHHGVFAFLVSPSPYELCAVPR

[23] = tested on: PPMS patients; conditions: cited from earlier work
[24] = tested on: PPMS patients; conditions: ORATORIO, cited from earlier work
[25] = tested on: PPMS patients; conditions: cited from earlier work; remark: listed apart in the source
[26] = post-hoc, high disease activity

metabolite share of plasma parent drug exposure [1]: < 3%
Compound: Nc1nc(Cl)nc2nc[nH]c12 [2-chloroadenine]

half-life [2]: 10 h | intracellular levels relative to Cd-AMP [2]: approximately half of the Cd-AMP levels
Compound: Nc1nc(Cl)nc2c1ncn2[C@H]1C[C@H](O)[C@@H](COP(=O)(O)OP(=O)(O)OP(=O)(O)O)O1 [Cd-ATP, 2-chlorodeoxyadenosine triphosphate]

Compound: Nc1nc(Cl)nc2c1ncn2[C@H]1C[C@H](O)[C@@H](CO)O1 [Cladribine, 2-chloro-2′deoxyadenosine]
exposure multiple vs expected human AUC at maximum daily dose of 20 mg ([3]; 30 mg/kg per day): approximately 25 fold | tumor incidence ([3]; 26-week, oral, up to 30 mg/kg per day, Tg rasH2 mice): no Cladribine-related increase in incidence of lymphoproliferative disorders or other tumor types | fraction unbound [4]: 0.8 | potential to act as inhibitor of CYP2C8 [5]: does not show significant potential to act as inhibitor | increase in exposure in patients with mild renal impairment ([6]; in vivo): 25% | non-renal part of the elimination ([6]; in vivo): approximately 50% | non-renal clearance (median) ([6]; pooled population pharmacokinetic data): 23.4 L/h | tumor incidence [7]: No increased incidence in lymphoproliferative disorders and no tumors were seen | adjusted mean number of active T2 lesions ([8]; 3.5 mg/kg): 0.38 | adjusted mean number of combined unique lesions per patient per scan ([8]; 3.5 mg/kg): 0.43 | incidence of ≥grade 3 lymphopenia ([8]; 3.5 mg/kg group): 25.6% | relative reduction in the mean number of active T2 lesions ([8]; 3.5 mg/kg vs placebo): 73% | relative reduction in the mean number of combined unique lesions per patient per scan ([8]; 3.5 mg/kg vs placebo): 74% | relative reduction in the mean number of T1 Gd+ lesions ([8]; 3.5 mg/kg vs placebo, brain MRI over 96 weeks): 86% | adjusted mean number of T1 Gd+ lesions ([8]; 3.5 mg/kg, brain MRI over 96 weeks): 0.12 | incidence of ≥grade 3 lymphopenia ([8]; 5.25 mg/kg group): 44.9% | Proportion of patients relapse-free over 96 weeks ([8]; cumulative dose 3.5 mg/kg): 79.7% | Relative reduction (cladribine vs. placebo) of annualised relapse rate ([8]; cumulative dose 3.5 mg/kg): 57.6% | Time to 3-month FDSS progression, 10th percentile (months) ([8]; cumulative dose 3.5 mg/kg): 13.6 months | Proportion of patients relapse-free over 96 weeks ([8]; cumulative dose 5.25 mg/kg): 78.9% | Relative reduction (cladribine vs. placebo) of annualised relapse rate ([8]; cumulative dose 5.25 mg/kg): 54.5% | Time to 3-month FDSS progression, 10th percentile (months) ([8]; cumulative dose 5.25 mg/kg): 13.6 months | 10th percentile of time to 6-month confirmed EDSS progression ([8]; post-hoc, 3.5 mg/kg group): not reached at all during the study period | hazard ratio, time to 6-month confirmed EDSS progression ([8]; post-hoc, 3.5 mg/kg vs placebo): 0.53 | reduction of the risk of disability progression (time to 6-month confirmed EDSS progression) ([8]; post-hoc, 3.5 mg/kg vs placebo): 47% | 10th percentile for disability progression [8, 26]: not reached during the entire study | hazard ratio, time to 6-month sustained disability [8, 26]: 0.18 | reduction of risk of disability progression (time to 6-month sustained disability) [8, 26]: 82% | potential to penetrate the blood brain barrier [9]: 25% | unchanged Cladribine [10]: at least 90% | gene mutation [11]: did not induce gene mutation | transporter-mediated uptake into human hepatocytes [12]: negligible | annualized rate of relapse ([13]; 3.5 mg per kilogram cumulative dose): 0.14 | relapse-free rate ([13]; 3.5 mg per kilogram): 79.7% | annualized rate of relapse ([13]; 5.25 mg per kilogram cumulative dose): 0.15 | relapse-free rate ([13]; 5.25 mg per kilogram): 78.9% | hazard ratio, 3-month sustained progression of disability ([13]; 3.5-mg group vs placebo): 0.67 | herpes zoster ([13]; 3.5-mg group): 8 patients | lymphocytopenia (adverse event frequency) ([13]; 3.5-mg group): 21.6% | hazard ratio, 3-month sustained progression of disability ([13]; 5.25-mg group vs placebo): 0.69 | herpes zoster ([13]; 5.25-mg group): 12 patients | lymphocytopenia (adverse event frequency) ([13]; 5.25-mg group): 31.5% | dose at which in vivo clastogenicity was detected (lowest dose tested) [14]: 10 mg/kg | inductive effect on CYP3A4 [15]: no clinically meaningful inductive effect | effects on the kidneys [16]: Effects on the kidneys were also seen | primary target organs ([16]; intravenous or subcutaneous, up to 1-year duration): lymphoid and hematopoietic system | potential to act as inhibitor of CYP2C19 [17]: does not show significant potential to act as inhibitor | adverse effect [18]: no severe adverse effect is observed | brain lesions ([18]; oral cyclodextrin formulation): efficient in decreasing brain lesions | inductive effect on CYP2B6 [19]: no clinically meaningful inductive effect | gene mutation [20]: did not induce gene mutation | primary target organs ([21]; intravenous or subcutaneous, up to 1-year duration, monkeys): lymphoid and hematopoietic system | testicular effects ([21]; monkey): Testicular degeneration and reversible decrease in spermatozoa with rapid progressive motility | other target organs after longer administration (14 cycles) ([21]; subcutaneous route, monkeys): kidneys (karyomegaly of renal tubular epithelium), adrenals (cortex atrophy and decreased vacuolation), gastrointestinal tract (mucosa atrophy) and testes | potential to act as inhibitor of CYP2D6 [22]: does not show significant potential to act as inhibitor

Compound: Cladribine monophosphate [Cd-AMP]
Intracellular half-life [2]: 15 h

Compound: glatiramer acetate
study outcome ([23]; PROMISE Study in PPMS): did not reach meaningful clinical endpoints | EDSS progression overall HR (95% CI) ([23]; PROMISE, CDP (3)): 0.87 | % with CDP study drug, CDP (3) Month 12 ([23]; PROMISE, PPMS): 22% | % with CDP study drug, CDP (3) Month 24 ([23]; PROMISE, PPMS): 41%

Compound: ocrelizumab: humanized monoclonal antibody that targets the CD20 surface molecule on B-cells
EDSS progression overall HR (95% CI) ([24]; CDP (3)): 0.76 | EDSS progression overall HR (95% CI) ([24]; CDP (6)): 0.75 | % with CDP study drug, CDP (3) Week 120 [24]: 32.9% | % with CDP study drug, CDP (6) Week 120 [24]: 29.7% | % with CDP study drug, CDP (3) Month 12 ([24]; derived from the KM): ~13.2% | % with CDP study drug, CDP (6) Month 12 ([24]; derived from the KM): ~15.2%

Compound: rituximab: study drug of the OLYMPUS study in PPMS
study outcome ([25]; OLYMPUS study in PPMS): did not reach meaningful clinical endpoints | EDSS progression overall HR (95% CI) ([25]; OLYMPUS, CDP (3)): 0.77 | % with CDP study drug, CDP (3) Week 48 ([25]; OLYMPUS, PPMS): 20.2% | % with CDP study drug, CDP (3) Week 96 ([25]; OLYMPUS, PPMS): 30.2% | % with CDP study drug, CDP (6) Week 96 ([25]; OLYMPUS, PPMS): 27.3%
